# Assay results taken from ChEMBL document CHEMBL2440076, “New triarylpyrazoles as broad-spectrum anticancer agents: design, synthesis, and biological evaluation” (Eur J Med Chem, 2013).
# Columns and labels:
# Assay type in all cases: functional
# A498 = experiment: Growth inhibition of human A498 cells assessed as cell growth at 10 uM after 48 hrs by sulforhodamine B assay; settings: A498, 48 h, read-out: Activity
# NCI-H322M = experiment: Growth inhibition of human NCI-H322M cells assessed as cell growth at 10 uM after 48 hrs by sulforhodamine B assay; settings: read-out: Activity
# DU-145 = experiment: Growth inhibition of human DU145 cells assessed as cell growth at 10 uM after 48 hrs by sulforhodamine B assay; settings: DU-145, 48 h, read-out: Activity
# SN12C = experiment: Growth inhibition of human SN12C cells assessed as cell growth at 10 uM after 48 hrs by sulforhodamine B assay; settings: read-out: Activity
# UACC-62 = experiment: Growth inhibition of human UACC62 cells assessed as cell growth at 10 uM after 48 hrs by sulforhodamine B assay; settings: UACC-62, 48 h, read-out: Activity
# ACHN = experiment: Growth inhibition of human ACHN cells assessed as cell growth at 10 uM after 48 hrs by sulforhodamine B assay; settings: read-out: Activity
# UACC-257 = experiment: Growth inhibition of human UACC257 cells assessed as cell growth at 10 uM after 48 hrs by sulforhodamine B assay; settings: UACC-257, 48 h, read-out: Activity
# SF-539 = experiment: Growth inhibition of human SF539 cells assessed as cell growth at 10 uM after 48 hrs by sulforhodamine B assay; settings: SF-539, 48 h, read-out: Activity
# 786-0 = experiment: Growth inhibition of human 786-0 cells assessed as cell growth at 10 uM after 48 hrs by sulforhodamine B assay; settings: 786-0, 48 h, read-out: Activity
# NCI-H226 = experiment: Growth inhibition of human NCI-H226 cells assessed as cell growth at 10 uM after 48 hrs by sulforhodamine B assay; settings: NCI-H226, 48 h, read-out: Activity
# KM12 = experiment: Growth inhibition of human KM12 cells assessed as cell growth at 10 uM after 48 hrs by sulforhodamine B assay; settings: KM12, 48 h, read-out: Activity
# RPMI-8226 = experiment: Growth inhibition of human RPMI8226 cells assessed as cell growth at 10 uM after 48 hrs by sulforhodamine B assay; settings: RPMI-8226, 48 h, read-out: Activity
# MDA-MB-435 = experiment: Growth inhibition of human MDA-MB-435 cells assessed as cell growth at 10 uM after 48 hrs by sulforhodamine B assay; settings: MDA-MB-435, 48 h, read-out: Activity
# MCF7 = experiment: Growth inhibition of human MCF7 cells assessed as cell growth at 10 uM after 48 hrs by sulforhodamine B assay; settings: MCF7, 48 h, read-out: Activity
# SW-620 = experiment: Growth inhibition of human SW620 cells assessed as cell growth at 10 uM after 48 hrs by sulforhodamine B assay; settings: SW-620, 48 h, read-out: Activity
# CAKI-1 = experiment: Growth inhibition of human CAKI-1 cells assessed as cell growth at 10 uM after 48 hrs by sulforhodamine B assay; settings: CAKI-1, 48 h, read-out: Activity
# SK-MEL-28 = experiment: Growth inhibition of human SK-MEL-28 cells assessed as cell growth at 10 uM after 48 hrs by sulforhodamine B assay; settings: SK-MEL-28, 48 h, read-out: Activity
# MOLT-4 = experiment: Growth inhibition of human MOLT4 cells assessed as cell growth at 10 uM after 48 hrs by sulforhodamine B assay; settings: MOLT-4, 48 h, read-out: Activity
# BT-549 = experiment: Growth inhibition of human BT549 cells assessed as cell growth at 10 uM after 48 hrs by sulforhodamine B assay; settings: BT-549, 48 h, read-out: Activity
SMILES,growth at 10 µM (A498),growth at 10 µM (NCI-H322M),growth at 10 µM (DU-145),growth at 10 µM (SN12C),growth at 10 µM (UACC-62),growth at 10 µM (ACHN),growth at 10 µM (UACC-257),growth at 10 µM (SF-539),growth at 10 µM (786-0),growth at 10 µM (NCI-H226),growth at 10 µM (KM12),growth at 10 µM (RPMI-8226),growth at 10 µM (MDA-MB-435),growth at 10 µM (MCF7),growth at 10 µM (SW-620),growth at 10 µM (CAKI-1),growth at 10 µM (SK-MEL-28),growth at 10 µM (MOLT-4),growth at 10 µM (BT-549)
O=C(Nc1cccc(-n2cc(-c3ccncc3)c(-c3ccc(Cl)c(O)c3)n2)c1)c1ccccc1,72.3%,89.2%,56.9%,79.3%,68.3%,53.2%,44.2%,74.7%,76.1%,89.6%,70.1%,60.5%,56.1%,62.6%,76.9%,90.3%,48.1%,69.5%,83.4%
Cc1cc(C(=O)Nc2cccc(-n3cc(-c4ccncc4)c(-c4ccc(Cl)c(O)c4)n3)c2)ccc1Br,102%,107%,103%,101%,105%,91.8%,95.9%,95.5%,106%,101%,97.3%,92.1%,93.4%,85.4%,125%,93.9%,93.5%,76.1%,103%
O=C(Nc1cccc(-n2cc(-c3ccncc3)c(-c3ccc(Cl)c(O)c3)n2)c1)c1ccc(Cl)c(C(F)(F)F)c1,105%,108%,95%,98.6%,100%,86.6%,104%,94.7%,108%,103%,88.4%,98.1%,97.8%,93.9%,112%,100%,94.1%,79.5%,94.5%
